In patent US20230295201A1 (Gilead Sciences, Inc., priority 2020, published 2023):
Where two headings read alike, the source gives them in different places.

What was measured:
Assay type in all cases: cell-based
HCV replicon 1B = assay: HCV Rep 1B EC50 (replicon luciferase)
Procedure: (§1) Compounds were serially diluted in ten steps of 1:3 dilutions in 384-well plates. All serial dilutions were performed in four replicates per compound within the same 384-well plate. […] To each well of a black polystyrene 384-well plate (Greiner Bio-one, Monroe, NC), 90 μL of cell culture medium (without Geneticin) containing 2000 suspended HCV replicon cells was added with a Biotek μFlow workstation. For compound transfer into cell culture plates, 0.4 μL of compound solution from the compound serial dilution plate was transferred to the cell culture plate on a Biomek FX workstation. The DMSO concentration in the final assay wells was 0.44%. The plates were incubated for 3 days at 37° C. with 5% CO2 and 85% humidity. The HCV replicon assay was a multiplex assay, able to assess both cytotoxicity and antireplicon activity from the same well. The CC50 assay was performed first. The media in the 384-well cell culture plate was aspirated, and the wells were washed four times with 100 μL of PBS each, using a Biotek ELX405 plate washer. A volume of 50 μL of a solution containing 400 nM calcein AM (Anaspec, Fremont, CA) in 1×PBS was added to each well of the plate with a Biotek μFlow workstation. The plate was incubated for 30 min at room temperature before the fluorescence signal (excitation 490 nm, emission 520 nm) was measured with a Perkin-Elmer Envision plate reader. The EC50 assay was performed in the same wells as the CC50 assay. The calcein-PBS solution in the 384-well cell culture plate was aspirated with a Biotek ELX405 plate washer. A volume of 20 μL of Dual-Glo luciferase buffer (Promega, Madison, WI) was added to each well of the plate with a Biotek μFlow Workstation. The plate was incubated for 10 min at room temperature. A volume of 20 μL of a solution containing a 1:100 mixture of Dual-Glo Stop & Glo substrate (Promega, Madison, WI) and Dual-Glo Stop & Glo buffer (Promega, Madison, WI) was added to each well of the plate with a Biotek μFlow Workstation. The plate was then incubated at room temperature for 10 min before the luminescence signal was measured with a Perkin-Elmer Envision Plate Reader.

HCV replicon 2A = assay: HCV Rep 2A EC50 (replicon luciferase)
Procedure: as §1

DENV2 replicon = assay: DENV-2 Huh-7 Rep EC50 (replicon luminescence); details: read-out: DENV-2 Huh-7 Rep EC50
Outline: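 EC50 derived from luminescence dose-response, normalised to DMSO-only 0% inhibition wells, after 1.5 h with EnduRen substrate. Compounds were first exposed for 48 h at 37° C to DENV2 replicon Huh-7 cells (5,000/well).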

RSV A2 = assay: RSV NHBE EC50 (RSV A2 antiviral assay in normal human bronchial epithelial cells); details: NHBE cells, RSV A2, 4 days, read-out: RSV NHBE EC50
[1] = test system: Dengue serotype 2 New Guinea C (NGC) strain; assay: DENV-2 Huh-7 EC50 (qPCR in Huh7 cells)
Procedure: Huh7 (Human hepatocarcinoma 7) cells were maintained in 10% FCS-containing DMEM complete media. On the day of the assay, cells were trypsinized (0.1% Trypsin-EDTA), washed and infected for 2 hours in serum-free DMEM with Dengue serotype 2 New Guinea C (NGC) strain at MOI=0.1 with gentle agitation at 37° C. After 2 hours, cells were washed with serum-free media and suspended in 10% FCS-containing DMEM (Gibco, supplemented with sodium pyruvate, NEAA, Penicillin-Streptomycin). 10^5 cells were plated in triplicate in 96-well plates with compounds dispensed at graded doses (Hewlett-Packard D300 Digital Dispenser). All wells were normalized to 0.25% DMSO. At 48 hours, cells were washed with 1×PBS and all supernatants removed. Total RNA was extracted using RNEasy 96 plates (Qiagen) and used to generate first-strand cDNA using XLT cDNA 5×Supermix (QuantaBio). cDNA was used as a template in a Taqman qPCR duplex reaction specific to DENV2 viral and GAPDH gene expression. EC50 values were determined using Prism Graphpad software, with normalization to a positive control and no compound negative control wells.

RSV strain A2 = assay: RSV HEp-2 EC50 (infectious cytopathic cell protection assay); details: HEp-2 cells, RSV A2, 4 days, read-out: RSV HEp-2 EC50
Outline: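 Percent inhibition of RSV-induced cytopathic effect came from remaining cell viability (CellTiter-Glo luminescence) after 4 days at 37° C. Compounds in 3-fold serial dilutions were exposed to an infectious mix of titered A2 virus and HEp-2 cells at 50,000/ml, with 0% and 100% inhibition control standards.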

HRV16 = HRV16 HELA EC50 (cytopathic effect in H1-HeLa cells)
Outline: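 Read-out is luminescent cell viability (CellTiter-Glo) after 96 h of infection at 33 °C, scaled between uninfected and infected-untreated wells. Before infection with titrated virus, compounds went onto H1-HeLa cells as triplicate 3-fold dilution series.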

[2] = test system: Dengue 2, New Guinea strain (NGC); assay: DENV-2 moDC EC50 (qPCR in human monocyte-derived dendritic cells); details: moDCs
Procedure: Human monocyte-derived dendritic cells (moDCs) were derived from CD14+ monocytes (AllCells) cultured in Human Mo-DC Differentiation medium containing GM-CSF and IL-4 (Miltenyi Biotec). On day 7, moDCs were harvested by mechanical disruption, washed and suspended in serum-free RPMI. moDCs were infected with Vero-derived Dengue 2, New Guinea strain (NGC) at a MOI=0.1 for two hours in serum-free RPMI with gentle agitation at 37° C. Cells were washed and resuspended in 10% serum-containing RPMI (Gibco, supplemented with sodium pyruvate, NEAA, Penicillin-Streptomycin). 10^5 cells were plated in triplicate in 96-well plates with compounds dispensed at graded doses (Hewlett-Packard D300 Digital Dispenser). All wells were normalized to 0.25% DMSO. At 48 hours, cells were washed with 1×PBS and all supernatants removed. Total RNA was extracted using RNEasy 96 plates (Qiagen) and used to generate first-strand cDNA using XLT cDNA 5× Supermix (QuantaBio). cDNA was used as a template in a Taqman qPCR duplex reaction specific to DENV2 viral and GAPDH gene expression. EC50 values were determined using Prism Graphpad software, with normalization to a positive control and no compound negative control wells.

[3] = replicon cells, 3 days, read-out: HCV Rep 1B EC50
[4] = replicon cells, 3 days, read-out: HCV Rep 2A EC50
[5] = Dengue virus, DENV2, Huh-7, 48 h, Huh-7 replicon cells, 48 hours
[6] = H1-HeLa cells, 96 h, 33° C.; read-out: HRV16 HELA EC50
[7] = Dengue virus, DENV2, Dendritic cell, 48 h
[8] = Dengue virus, DENV2, Huh-7, 48 h
[9] = human respiratory syncytial virus, 96 h
[10] = 96 h, H1-HeLa cells, 33° C., read-out: HRV16 HELA EC50
[11] = human respiratory syncytial virus, NHBE, 96 h

| SMILES | EC50 (HCV replicon 1B; [3]) [µM] | EC50 (HCV replicon 2A; [4]) [µM] | EC50 (DENV2 replicon; Huh-7 replicon cells, 48 hours) [µM] | EC50 (RSV A2) [µM] | EC50 ([1]; 48 hours) [µM] | EC50 (RSV strain A2) [µM] | EC50 (DENV2 replicon; [5]) [µM] | EC50 (HRV16; [6]) [µM] | EC50 [2, 7] [µM] | also measured |
| --- | --- | --- | --- | --- | --- | --- | --- | --- | --- | --- |
| COCCCOC(=O)[C@H](C)NP(=O)(OC[C@@]1(C#N)O[C@@H](c2ccc3c(N)ncnn23)[C@H](O)[C@@H]1O)Oc1ccccc1 (single isomer, unassigned) [Example 60] | 6.08 | 10.8 | 41.3 | 0.361 | 6.82 | 0.583 |  |  |  |  |
| C[C@H](NP(=O)(OC[C@@]1(C#N)O[C@@H](c2ccc3c(N)ncnn23)[C@H](O)[C@@H]1O)Oc1ccccc1)C(=O)O[C@H]1CCOC1 (single isomer, unassigned) [Example 66] |  |  |  |  |  |  | > 100 |  |  | EC50 (HCV replicon 1B; Hepatitis C virus, 72 h, read-out: HCV Rep 1B EC50, replicon cells, 3 days): 14.9 µM; EC50 (HCV replicon 2A; Hepatitis C virus, 72 h, read-out: HCV Rep 2A EC50, replicon cells, 3 days): 21.8 µM |
| CC(NP(=O)(OCC1(C#N)OC(c2ccc3c(N)ncnn23)C(O)C1O)Oc1ccccc1)C(=O)OC1CCOC1 (single isomer, unassigned) [Example 69] | 25.3 | 50.3 | > 100 |  |  |  |  | 7.33 |  |  |
| CC(NP(=O)(OCC1(C#N)OC(c2ccc3c(N)ncnn23)C(O)C1O)Oc1ccccc1)C(=O)OC1CCOC1 (single isomer, unassigned) [Example 70] | 9.43 | 32.7 | > 100 |  |  |  |  | 5.23 |  |  |
| CCC(CC)COC(=O)[C@H](C)NP(=O)(N[C@@H](C)C(=O)OC1CCCCC1)OC[C@@]1(C#N)O[C@@H](c2ccc3c(N)ncnn23)[C@H](O)[C@@H]1O (single isomer, unassigned) [Example 227] | 10.2 | 4.76 | 39.4 | 0.126 |  | 0.614 |  | 4.94 |  |  |
| CCC(C)(C)COC(=O)[C@H](C)NP(=O)(OC[C@@]1(C#N)O[C@@H](c2ccc3c(N)ncnn23)[C@H](O)[C@@H]1O)Oc1ccccc1 (single isomer, unassigned) [Example 255] |  |  | 4.95 | 0.043 | 0.824 | 0.018 |  |  | 0.086 |  |
| CCC(C)(C)COC(=O)[C@H](C)NP(=O)(OC[C@@]1(C#N)O[C@@H](c2ccc3c(N)ncnn23)[C@H](O)[C@@H]1O)Oc1ccccc1 (single isomer, unassigned) [Example 256] |  |  | > 100 | 0.43 | > 18.1 | 0.054 |  |  |  | EC50 ([2]; 48 hours): 0.103 µM |
| CCC(CC)COC(=O)[C@H](C)NP(=O)(N[C@@H](C)C(=O)OCC(CC)CC)OC[C@@]1(C#N)O[C@@H](c2ccc3c(N)ncnn23)[C@H](O)[C@@H]1O [Example 7] |  |  |  |  |  |  |  | 5.94 |  | EC50 ([2]; Dengue virus, DENV2, Dendritic cell, 48 hours): > 25 µM; EC50 (DENV2 replicon; [8]): 32.9 µM; EC50 (RSV A2; [9]): 0.265 µM; EC50 (RSV strain A2; [9]): 1.86 µM |
| CCCCOC(=O)[C@H](C)N[P@](=O)(OC[C@@]1(C#N)O[C@@H](c2ccc3c(N)ncnn23)[C@H](O)[C@@H]1O)Oc1ccccc1 [Example 54, butyl ((S)-(((2R,3S,4R,5S)-5-(4-aminopyrrolo[2,1-f][1,2,4]triazin-7-yl)-2-cyano-3,4-dihydroxytetrahydrofuran-2-yl)methoxy)(phenoxy)phosphoryl)-L-alaninate] |  |  |  |  |  |  | 7.4 |  | 0.804 | EC50 (HRV16; [10]): 0.378 µM; EC50 (RSV A2; [11]): 0.105 µM; EC50 [1, 8]: 2.59 µM |
| CCCCCCCCCCCC(=O)Nc1ncnn2c([C@@H]3O[C@](C#N)(CO[P@@](=O)(N[C@@H](C)C(=O)OC4CCCCC4)Oc4ccccc4)[C@@H](O)[C@H]3O)ccc12 [Example 232, Cyclohexyl ((S)-(((2R,3S,4R,5S)-2-cyano-5-(4-dodecanamidopyrrolo[2,1-f][1,2,4]triazin-7-yl)-3,4-dihydroxytetrahydrofuran-2-yl)methoxy)(phenoxy)phosphoryl)-L-alaninate] |  |  |  |  |  |  | 5.32 |  | 1.09 | EC50 (HRV16; [10]): 0.479 µM; EC50 (RSV A2; [11]): 0.098 µM; EC50 (RSV strain A2; human respiratory syncytial virus, HEp-2, 96 h): 0.061 µM |
